Columns and labels:
Format in all cases: biochemical
UCHL3 = target: T1, UCHL3 (Homo sapiens, UniProt P15374); assay: Isopeptidase cleavage of substrates (DUB-Glo luminescence / fluorescence), S/B; settings: for signal to background (S/B) ratio: 30 minutes
T1 sequence (P15374 1-230): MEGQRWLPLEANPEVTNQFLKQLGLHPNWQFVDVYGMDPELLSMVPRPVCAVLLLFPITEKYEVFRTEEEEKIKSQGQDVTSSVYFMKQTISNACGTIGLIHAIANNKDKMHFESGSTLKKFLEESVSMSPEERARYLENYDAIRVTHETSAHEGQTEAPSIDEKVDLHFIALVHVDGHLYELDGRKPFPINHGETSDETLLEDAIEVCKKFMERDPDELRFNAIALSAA
Method: The Ub-amino-luciferin substrate was compared to the Z-Arg-Leu-Arg-Gly-Gly (SEQ ID NO: 1)-amino-luciferin substrate (Promega DUB-Glo™ substrate) to determine the limit of detection of the activities of four different isopeptidases (UCHL3, USP2core, USP7, and USP8). For all enzymes, these two substrates were tested in parallel using the DUB-Glo™ assay system (Promega) according to the manufacturer's instructions. All enzymes were diluted into 50 mM HEPES, pH 7.5, 10 mM DTT, 0.1% Prionex (Sigma-Aldrich). For testing Z-Arg-Leu-Arg-Gly-Gly (SEQ ID NO: 1)-amino-luciferin, final isopeptidase concentrations were as follows: UCHL3 equal to approximately 0.35 to 50 nM; USP2core equal to approximately 10 to 500 nM, USP7 equal to approximately 0.1 to 50 nM, and USP8 equal to approximately 20 to 500 nM. For testing Ub-amino-luciferin, final isopeptidase concentrations were as follows: UCHL3 equal to approximately 0.05 to 50 pM; USP2core, USP7, and USP8 equal to approximately 0.5 to 500 pM. Reactions were assembled through addition of 50 μl of diluted enzyme and 50 μl of DUB-Glo™ reaction mixture supplemented with either Z-Arg-Leu-Arg-Gly-Gly (SEQ ID NO: 1)-amino-luciferin (final concentration of 20 μM) or Ub-amino-luciferin (final concentration of 100 nM). The signal in relative luminescence units (RLUs) was measured at 30 minutes from reaction assembly on an Envision multi-label plate reader (Perkin Elmer). The signal to background ratio (S/B) was calculated as (maximum signal−signal in absence of enzyme)/(signal in absence of enzyme).
The Ub-amino-luciferin (Ub-LUC) substrate was compared to the Ub-AMC substrate (FIG. 3) and the Ub-Rhodamine110 (Ub-Rho) substrate (FIG. 4), to determine the limit of detection for the activities of four different isopeptidases (UCHL3, USP2core, USP7, and USP8). All enzymes were diluted into 50 mM Tris, pH 8.0, 5 mM DTT, 0.05% (w/v) CHAPS. Final isopeptidase concentrations were as follows: UCHL3 equal to approximately 2 pM to 40 pM; USP2core, USP7, and USP8 were equal to approximately 10 to 1000 nM. Either Ub-AMC or Ub-Rhodamine110 (final concentration equal to 250 nM) were diluted into 50 mM Tris, pH 8.0, 5 mM DTT, 0.05% (w/v) CHAPS. Reactions were assembled through the addition of 50 μl diluted isopeptidase to 50 μl of either Ub-AMC or Ub-Rhodamine110, and the signal in relative fluorescence units (RFUs) was measured at 30 minutes on an Envision multi-label plate reader (Perkin Elmer). For Ub-AMC, fluorescence was monitored with filters corresponding to excitation at 340 nm and emission at 460 nm. For Ub-Rhodamine110, fluorescence was monitored with filters corresponding to excitation at 485 nm and emission at 531 nm. The signal to background (S/B) was calculated as (maximum signal−signal in absence of enzyme)/(signal in absence of enzyme).

USP14 = USP14 (Homo sapiens, UniProt P54578); assay: Platform comparison of DUB substrates, signal to background; settings: DUB 10 nM; signal at 30 minutes; Ub-LUC 100 nM, DUB-Glo substrate 20 μM, Ub-AMC/Ub-rho 250 nM
Sequence of USP14 (P54578 whole entry, species assumed): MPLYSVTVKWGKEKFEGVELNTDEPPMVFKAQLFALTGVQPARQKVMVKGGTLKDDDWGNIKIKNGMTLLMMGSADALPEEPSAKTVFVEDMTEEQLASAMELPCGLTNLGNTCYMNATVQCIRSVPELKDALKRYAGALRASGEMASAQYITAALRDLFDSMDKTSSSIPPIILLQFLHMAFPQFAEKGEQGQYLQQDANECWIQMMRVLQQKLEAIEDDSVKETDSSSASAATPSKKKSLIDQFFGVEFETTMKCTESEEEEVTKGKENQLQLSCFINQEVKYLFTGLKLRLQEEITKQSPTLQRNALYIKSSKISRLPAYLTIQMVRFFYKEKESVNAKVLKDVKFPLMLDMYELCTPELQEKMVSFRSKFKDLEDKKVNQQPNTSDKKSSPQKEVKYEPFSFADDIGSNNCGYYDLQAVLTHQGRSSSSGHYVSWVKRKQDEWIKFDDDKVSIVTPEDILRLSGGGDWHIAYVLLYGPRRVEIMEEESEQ
Method: (§1) For Ub-AMC and Ub-Rhodamine110, all enzymes were diluted into 50 mM Tris, pH 8.0, 5 mM DTT, 0.05% CHAPS to a final concentration of 10 nM. […] Either Ub-AMC or Ub-Rhodamine110 (final reaction concentration equal to 250 nM) were diluted into 50 mM Tris, pH 8.0, 5 mM DTT, 0.05% (w/v) CHAPS. […] For Ub-Rhodamine110, fluorescence was monitored with filters corresponding to excitation at 485 nm and emission at 531 nm.

USP20 = USP20 (Homo sapiens, UniProt Q9Y2K6); assay: as above; settings: DUB 10 nM; signal at 30 minutes; Ub-LUC 100 nM, DUB-Glo substrate 20 μM, Ub-AMC/Ub-rho 250 nM
Sequence of USP20 (Q9Y2K6 whole entry, species assumed): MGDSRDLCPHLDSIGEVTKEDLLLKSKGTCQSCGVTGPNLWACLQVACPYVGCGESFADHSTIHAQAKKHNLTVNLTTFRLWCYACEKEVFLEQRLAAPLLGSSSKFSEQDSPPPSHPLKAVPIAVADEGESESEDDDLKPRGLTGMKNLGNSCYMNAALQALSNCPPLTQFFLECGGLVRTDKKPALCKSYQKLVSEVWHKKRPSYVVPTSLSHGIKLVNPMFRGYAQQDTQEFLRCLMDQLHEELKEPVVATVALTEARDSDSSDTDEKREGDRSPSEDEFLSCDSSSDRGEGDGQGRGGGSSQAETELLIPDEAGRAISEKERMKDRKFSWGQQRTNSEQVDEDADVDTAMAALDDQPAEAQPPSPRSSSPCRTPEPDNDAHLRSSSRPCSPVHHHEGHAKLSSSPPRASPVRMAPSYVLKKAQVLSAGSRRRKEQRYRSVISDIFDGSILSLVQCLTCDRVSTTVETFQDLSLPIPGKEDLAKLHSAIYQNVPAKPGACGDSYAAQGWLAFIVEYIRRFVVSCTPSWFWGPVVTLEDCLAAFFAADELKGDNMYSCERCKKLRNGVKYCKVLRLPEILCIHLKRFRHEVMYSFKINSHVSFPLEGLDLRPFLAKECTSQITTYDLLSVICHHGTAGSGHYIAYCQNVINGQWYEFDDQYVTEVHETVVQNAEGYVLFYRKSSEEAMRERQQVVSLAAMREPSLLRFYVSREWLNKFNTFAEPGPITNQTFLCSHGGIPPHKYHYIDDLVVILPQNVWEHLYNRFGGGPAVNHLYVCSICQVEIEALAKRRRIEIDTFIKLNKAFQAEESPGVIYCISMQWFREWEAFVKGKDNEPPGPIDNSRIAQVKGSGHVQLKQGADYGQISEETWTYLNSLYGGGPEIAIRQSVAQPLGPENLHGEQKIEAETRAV
Method: as §1

UCHL5 = target: T2, UCHL5 (Homo sapiens, UniProt Q9Y5K5); assay: as above; settings: DUB 10 nM; signal at 30 minutes; Ub-LUC 100 nM, DUB-Glo substrate 20 μM, Ub-AMC/Ub-rho 250 nM
T2 sequence (Q9Y5K5 1-329): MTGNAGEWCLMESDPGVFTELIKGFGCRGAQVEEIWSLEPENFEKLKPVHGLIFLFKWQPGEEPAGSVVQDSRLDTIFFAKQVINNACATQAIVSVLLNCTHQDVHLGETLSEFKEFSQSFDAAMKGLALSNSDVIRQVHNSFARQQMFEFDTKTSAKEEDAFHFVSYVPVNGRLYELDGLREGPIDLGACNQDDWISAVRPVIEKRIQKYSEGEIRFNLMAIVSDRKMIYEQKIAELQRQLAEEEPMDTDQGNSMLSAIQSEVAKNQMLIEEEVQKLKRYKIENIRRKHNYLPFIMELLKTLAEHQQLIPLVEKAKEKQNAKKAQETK
Method: as §1

Otub2 = target: T3, Otub2 (Homo sapiens, UniProt Q96DC9); assay: as above; settings: DUB 10 nM; signal at 30 minutes; Ub-LUC 100 nM, DUB-Glo substrate 20 μM, Ub-AMC/Ub-rho 250 nM
T3 sequence (Q96DC9 1-234): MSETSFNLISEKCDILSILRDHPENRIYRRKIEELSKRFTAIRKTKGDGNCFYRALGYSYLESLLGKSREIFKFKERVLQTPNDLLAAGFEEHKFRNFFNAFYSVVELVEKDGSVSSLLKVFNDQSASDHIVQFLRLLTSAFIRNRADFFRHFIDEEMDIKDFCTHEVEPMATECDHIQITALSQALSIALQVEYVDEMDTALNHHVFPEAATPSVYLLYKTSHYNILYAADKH
Method: as §1

JosD1 = JosD1 (Homo sapiens, UniProt Q15040); assay: as above; settings: DUB 10 nM; signal at 30 minutes; Ub-LUC 100 nM, DUB-Glo substrate 20 μM, Ub-AMC/Ub-rho 250 nM
Method: as §1

fold greater S/B compared to Z-RLRGG-amino-luciferin (UCHL3; UCHL3 activity)	limits of detection, fold lower than with Z-RLRGG-amino-luciferin (UCHL3; linear range of UCHL3-dependent S/B)	signal to background (S/B) ratio (UCHL3; substrate 100 nM, UCHL3 32 pM)	Signal to Background value (USP14)	Signal to Background value (USP20)	Signal to Background value (UCHL5)	Signal to Background value (Otub2)	Signal to Background value (JosD1)	signal to background (S/B) ratio (UCHL3; substrate 20 μM, UCHL3 40 nM)	Substance
about 1000 fold	approximately 1000 fold	1000	6.0	473	1700	980	74		Ub(1-76)-aminoluciferin [Ub-LUC]
			1.6	2.8	1.4	1.3	1.3	approximately 1000	Z-Arg-Leu-Arg-Gly-Gly (SEQ ID NO: 1)-amino-luciferin [DUB-glo ™]
